In patent US6723715B1, “14, 15-cyclopropanosteroids of the 19-norandrostane series, method for producing said compounds and pharmaceutical preparation containing said compounds” (Schering AG, priority 1999, dated 2004):

Experiments:
[1] = biological target: T1, progesterone receptor (Homo sapiens, UniProt P06401); assay: binding to the progesterone receptor relative to progesterone; details: progesterone=100%
T1 sequence (P06401 1-933): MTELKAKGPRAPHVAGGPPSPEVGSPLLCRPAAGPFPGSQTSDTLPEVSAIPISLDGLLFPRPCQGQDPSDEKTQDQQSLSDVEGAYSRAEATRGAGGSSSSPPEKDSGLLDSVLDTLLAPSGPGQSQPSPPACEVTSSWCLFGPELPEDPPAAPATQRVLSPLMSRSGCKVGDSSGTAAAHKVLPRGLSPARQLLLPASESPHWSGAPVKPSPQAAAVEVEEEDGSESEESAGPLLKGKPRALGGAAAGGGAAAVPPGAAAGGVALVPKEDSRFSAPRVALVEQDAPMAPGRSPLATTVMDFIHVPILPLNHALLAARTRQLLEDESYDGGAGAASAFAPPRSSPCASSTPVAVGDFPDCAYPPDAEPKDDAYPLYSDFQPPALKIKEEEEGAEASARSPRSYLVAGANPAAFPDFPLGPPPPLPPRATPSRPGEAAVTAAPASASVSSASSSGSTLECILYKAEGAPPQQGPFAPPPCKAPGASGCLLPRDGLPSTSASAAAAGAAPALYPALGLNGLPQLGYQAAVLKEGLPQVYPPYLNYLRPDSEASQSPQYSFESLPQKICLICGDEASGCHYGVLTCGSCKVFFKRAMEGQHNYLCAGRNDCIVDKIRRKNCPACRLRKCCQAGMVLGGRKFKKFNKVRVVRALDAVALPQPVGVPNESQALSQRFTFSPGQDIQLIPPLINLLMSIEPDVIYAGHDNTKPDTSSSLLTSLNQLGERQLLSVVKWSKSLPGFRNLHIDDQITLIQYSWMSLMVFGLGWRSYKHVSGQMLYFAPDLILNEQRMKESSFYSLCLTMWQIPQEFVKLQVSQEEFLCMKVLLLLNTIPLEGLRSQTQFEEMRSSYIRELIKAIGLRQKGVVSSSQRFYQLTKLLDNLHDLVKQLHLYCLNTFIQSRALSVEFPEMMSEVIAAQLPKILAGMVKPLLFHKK

[2] = biological target: T2, androgen receptor (Homo sapiens, UniProt P10275); assay: binding to the androgen receptor relative to R 1881; details: R 1881=100%
T2 sequence (P10275 1-920): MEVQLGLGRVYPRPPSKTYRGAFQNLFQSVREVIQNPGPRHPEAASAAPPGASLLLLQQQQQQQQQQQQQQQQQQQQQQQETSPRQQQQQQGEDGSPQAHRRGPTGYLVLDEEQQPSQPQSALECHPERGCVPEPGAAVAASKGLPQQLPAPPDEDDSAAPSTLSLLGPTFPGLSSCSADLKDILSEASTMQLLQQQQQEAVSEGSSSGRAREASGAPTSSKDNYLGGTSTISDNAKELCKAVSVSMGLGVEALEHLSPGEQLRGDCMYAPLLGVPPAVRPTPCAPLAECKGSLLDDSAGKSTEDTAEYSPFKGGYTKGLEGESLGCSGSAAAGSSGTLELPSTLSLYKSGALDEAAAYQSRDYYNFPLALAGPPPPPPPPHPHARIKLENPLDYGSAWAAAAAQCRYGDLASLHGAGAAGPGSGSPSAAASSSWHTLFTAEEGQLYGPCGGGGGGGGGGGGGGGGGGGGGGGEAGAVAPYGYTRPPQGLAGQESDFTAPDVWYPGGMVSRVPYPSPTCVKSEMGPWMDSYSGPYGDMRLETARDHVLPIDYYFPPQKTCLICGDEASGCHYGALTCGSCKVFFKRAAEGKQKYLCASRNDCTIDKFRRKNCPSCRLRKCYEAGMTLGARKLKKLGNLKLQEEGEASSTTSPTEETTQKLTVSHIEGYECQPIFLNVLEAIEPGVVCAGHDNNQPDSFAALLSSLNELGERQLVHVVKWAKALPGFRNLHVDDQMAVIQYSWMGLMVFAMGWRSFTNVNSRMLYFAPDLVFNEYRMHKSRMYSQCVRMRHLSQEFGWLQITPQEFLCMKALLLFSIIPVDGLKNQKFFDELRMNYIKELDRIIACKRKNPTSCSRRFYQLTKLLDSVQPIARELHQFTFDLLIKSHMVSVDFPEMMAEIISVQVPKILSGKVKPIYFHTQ

Row | Structure (SMILES) | binds to the extent of % to the progesterone receptor [1] [%] | binds to the extent of % to the androgen receptor [2] [%]
1 | C[C@]12CC[C@H]3[C@@H](CCC4=C(Cl)C(=O)CC[C@@H]43)[C@@]13C[C@H]3C[C@@H]2O [4-Chloro-17β-hydroxy-14α,15α-methylene-estr-4-ene-3-one] | 5.5 | 98
2 | C[C@]12C=CC3=C4CCC(=O)C=C4CC[C@H]3[C@@]13C[C@H]3C[C@@H]2O [17β-Hydroxy-14α,15α-methylene-estr-4,9,11-triene-3-one] | 36 | 58
